Assay results as given in the NIST ThermoML archive (doi:10.1016/j.jct.2006.11.003).

Test: xn = mol fraction of the nth substance listed
Details: 101 kPa, Liquid

Cc1cccc(C)c1 [1,3-dimethylbenzene] + CN1CCCC1=O
Details | mass density [kg/m3]
293.15 K, x1 = 0.0451 | 1024.18
293.15 K, x1 = 0.1145 | 1011.33
293.15 K, x1 = 0.1874 | 998.07
293.15 K, x1 = 0.2451 | 987.76
293.15 K, x1 = 0.3258 | 973.58
293.15 K, x1 = 0.3987 | 961
293.15 K, x1 = 0.4657 | 949.63
293.15 K, x1 = 0.5214 | 940.31
293.15 K, x1 = 0.5985 | 927.59
293.15 K, x1 = 0.6584 | 917.85
293.15 K, x1 = 0.7214 | 907.73
293.15 K, x1 = 0.7987 | 895.48
293.15 K, x1 = 0.8547 | 886.71
293.15 K, x1 = 0.9048 | 878.92
293.15 K, x1 = 0.9597 | 870.47
293.15 K, x1 = 1 | 864.31
303.15 K, x1 = 0.0541 | 1013.3
303.15 K, x1 = 0.1134 | 1002.37
303.15 K, x1 = 0.1954 | 987.52
303.15 K, x1 = 0.2562 | 976.72
303.15 K, x1 = 0.3214 | 965.31
303.15 K, x1 = 0.3895 | 953.58
303.15 K, x1 = 0.4487 | 943.53
303.15 K, x1 = 0.5014 | 934.7
303.15 K, x1 = 0.5782 | 922.02
303.15 K, x1 = 0.6484 | 910.6
303.15 K, x1 = 0.7154 | 899.86
303.15 K, x1 = 0.7654 | 891.93
303.15 K, x1 = 0.8241 | 882.72
303.15 K, x1 = 0.8815 | 873.79
303.15 K, x1 = 0.9465 | 863.8
303.15 K, x1 = 1 | 855.64
313.15 K, x1 = 0.0487 | 1005.18
313.15 K, x1 = 0.1151 | 992.96
313.15 K, x1 = 0.1745 | 982.21
313.15 K, x1 = 0.2495 | 968.86
313.15 K, x1 = 0.3147 | 957.46
313.15 K, x1 = 0.3851 | 945.34
313.15 K, x1 = 0.4587 | 932.89
313.15 K, x1 = 0.5185 | 922.93
313.15 K, x1 = 0.6214 | 906.08
313.15 K, x1 = 0.6785 | 896.89
313.15 K, x1 = 0.7484 | 885.77
313.15 K, x1 = 0.7945 | 878.53
313.15 K, x1 = 0.8521 | 869.55
313.15 K, x1 = 0.9021 | 861.83
313.15 K, x1 = 0.9548 | 853.77
313.15 K, x1 = 1 | 846.9
323.15 K, x1 = 0.0548 | 995.37
323.15 K, x1 = 0.1154 | 984.22
323.15 K, x1 = 0.1754 | 973.34
323.15 K, x1 = 0.2354 | 962.63
323.15 K, x1 = 0.2965 | 951.89
323.15 K, x1 = 0.3551 | 941.73
323.15 K, x1 = 0.4158 | 931.36
323.15 K, x1 = 0.4814 | 920.31
323.15 K, x1 = 0.5385 | 910.84
323.15 K, x1 = 0.5821 | 903.68
323.15 K, x1 = 0.6514 | 892.44
323.15 K, x1 = 0.7085 | 883.3
323.15 K, x1 = 0.7765 | 872.54
323.15 K, x1 = 0.8512 | 860.88
323.15 K, x1 = 0.9374 | 847.61
323.15 K, x1 = 1 | 838.09
333.15 K, x1 = 0.0451 | 987.86
333.15 K, x1 = 0.1102 | 975.88
333.15 K, x1 = 0.1985 | 959.95
333.15 K, x1 = 0.2511 | 950.64
333.15 K, x1 = 0.3201 | 938.59
333.15 K, x1 = 0.3952 | 925.71
333.15 K, x1 = 0.4625 | 914.36
333.15 K, x1 = 0.5214 | 904.57
333.15 K, x1 = 0.5985 | 891.95
333.15 K, x1 = 0.6584 | 882.28
333.15 K, x1 = 0.7121 | 873.71
333.15 K, x1 = 0.7741 | 863.94
333.15 K, x1 = 0.8351 | 854.42
333.15 K, x1 = 0.8812 | 847.31
333.15 K, x1 = 0.9487 | 836.99
333.15 K, x1 = 1 | 829.22
343.15 K, x1 = 0.0547 | 977.18
343.15 K, x1 = 0.1241 | 964.43
343.15 K, x1 = 0.1887 | 952.77
343.15 K, x1 = 0.2654 | 939.18
343.15 K, x1 = 0.3214 | 929.42
343.15 K, x1 = 0.3985 | 916.19
343.15 K, x1 = 0.4658 | 904.84
343.15 K, x1 = 0.5214 | 895.6
343.15 K, x1 = 0.5985 | 882.97
343.15 K, x1 = 0.6541 | 874
343.15 K, x1 = 0.7014 | 866.44
343.15 K, x1 = 0.7654 | 856.33
343.15 K, x1 = 0.8354 | 845.41
343.15 K, x1 = 0.8924 | 836.63
343.15 K, x1 = 0.9469 | 828.32
343.15 K, x1 = 1 | 820.29
353.15 K, x1 = 0.0544 | 968.44
353.15 K, x1 = 0.1214 | 956.1
353.15 K, x1 = 0.1958 | 942.64
353.15 K, x1 = 0.2562 | 931.9
353.15 K, x1 = 0.3214 | 920.5
353.15 K, x1 = 0.3985 | 907.25
353.15 K, x1 = 0.4515 | 898.28
353.15 K, x1 = 0.5114 | 888.28
353.15 K, x1 = 0.5941 | 874.69
353.15 K, x1 = 0.6621 | 863.71
353.15 K, x1 = 0.7214 | 854.26
353.15 K, x1 = 0.7852 | 844.22
353.15 K, x1 = 0.8471 | 834.59
353.15 K, x1 = 0.8915 | 827.76
353.15 K, x1 = 0.9565 | 817.85
353.15 K, x1 = 1 | 811.29
